Data on four compounds can be found in ChEMBL document CHEMBL1201862, “PubChem BioAssay data set” (2004).

Where a name gives a salt, the structure may show the parent alone.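 Assay format: 96-well plates, 48-hour exposure. GI50: concentration for 50% inhibition of growth.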 Calls of active or inactive are those of the source. No stated cut-off is given here; in the data, active = GI50 up to about 1.1 µM and inactive = higher.

Some test systems named below: NCI-H226; HCC 2998; PC-3; OVCAR-3; HCT-116; SK-MEL-5; RXF 393; T47D; NCI-H23; MDA-MB-231; NCI/ADR-RES; COLO 205; KM12; SF-539; K562; A549; TK-10; UACC-62; SK-MEL-2.
What all share (test): NCI-60 cell line screen, 48 h

With `COc1ccc(-c2c(-c3ccc(OC)cc3)n3c(=O)n(C)c(=O)n23)cc1`, the GI50 in the experiment on NCI-H226 was 60.4 µM (inactive); with HCC 2998 it was > 100 µM (inactive); in the experiment with PC-3, 27.4 µM (inactive); with OVCAR-3, 18.2 µM (inactive); in the experiment with HCT-116, > 100 µM (inactive); with SK-MEL-5, > 100 µM (inactive). The GI50 was 76.4 µM (inactive) in the experiment on RXF 393; 20.6 µM (inactive) in the experiment on T47D; > 100 µM (inactive) with NCI-H23; > 100 µM (inactive) with MDA-MB-231; 18.4 µM (inactive) in the experiment with NCI/ADR-RES; > 100 µM (inactive) in the experiment with COLO 205. The GI50 with KM12 was > 100 µM (inactive); with SF-539, 24.6 µM (inactive); in the experiment with K562, > 100 µM (inactive); with A549, 53.3 µM (inactive); in the experiment with TK-10, 33.3 µM (inactive); in the experiment on UACC-62, 30.5 µM (inactive). In addition, in the experiment on SK-MEL-2, the GI50 is 43.2 µM (inactive).

For `O=C(NNC(=O)c1csc(NC(=S)NC2CCCCC2)n1)c1ccccc1`, the GI50 in the experiment on NCI-H226 is 7.24 µM (inactive); in the experiment with HCC 2998, 13.9 µM (inactive); in the experiment on PC-3, 7.82 µM (inactive); with OVCAR-3 it was 4.33 µM (inactive); in the experiment with HCT-116 it was 2.7 µM (inactive); in the experiment on SK-MEL-5, 6.71 µM (inactive). In addition, the GI50 is 3.37 µM (inactive) with T47D; 16.7 µM (inactive) in the experiment with NCI-H23; 13.5 µM (inactive) in the experiment on MDA-MB-231; 4.85 µM (inactive) with NCI/ADR-RES; 5.25 µM (inactive) in the experiment on COLO 205; 8.13 µM (inactive) in the experiment with KM12. For the same compound, the GI50 in the experiment on SF-539 was 15 µM (inactive); in the experiment with A549 it was 15.1 µM (inactive); with TK-10 it was 22 µM (inactive); in the experiment on UACC-62 it was 10.2 µM (inactive); in the experiment with SK-MEL-2, 22.4 µM (inactive).

`CCCCCCCCCCCCCCCCOP(=O)([O-])OCC[N+](C)(C)C1CC(C)(C)N(O)C(C)(C)C1`: the GI50 in the experiment on NCI-H226, in the experiment on HCC 2998, in the experiment with PC-3, in the experiment on OVCAR-3, with HCT-116 and with SK-MEL-5 was > 100 µM (inactive) throughout. In addition, the GI50 with RXF 393, in the experiment with T47D, with NCI-H23, with MDA-MB-231, in the experiment on NCI/ADR-RES and with COLO 205 was > 100 µM (inactive) throughout. Also, the GI50 in the experiment with KM12, in the experiment on SF-539, in the experiment on A549, in the experiment with TK-10, with UACC-62 and with SK-MEL-2 was > 100 µM (inactive) throughout.

For the compound `CN(C)CCC=C1c2ccccc2C=Cc2ccccc21` [CYCLOBENZAPRINE HYDROCHLORIDE], the GI50 in the experiment with NCI-H226 was 0.0374 µM (active); in the experiment on HCC 2998, 5.4 µM (inactive); in the experiment on PC-3, 16.6 µM (inactive); in the experiment on OVCAR-3 it was 15.5 µM (inactive); in the experiment on HCT-116, 15 µM (inactive); in the experiment on SK-MEL-5, 14 µM (inactive). The GI50 in the experiment on RXF 393 is 14.5 µM (inactive); with T47D, 19.5 µM (inactive); in the experiment with NCI-H23, 18.7 µM (inactive); in the experiment on MDA-MB-231, 17.3 µM (inactive); with NCI/ADR-RES, 16.3 µM (inactive); with COLO 205 it was 14.4 µM (inactive). The GI50 in the experiment with KM12 was 18.5 µM (inactive); with K562 it was 18.5 µM (inactive); in the experiment with A549, 20 µM (inactive); in the experiment with TK-10 it was 16.2 µM (inactive); with UACC-62, 16.6 µM (inactive); with SK-MEL-2 it was 16.3 µM (inactive).
